Experimental data taken from patent US12049450B2, “Pyridyloxy-carboxylate derivative and preparation method therefor, herbicidal composition, and use” (Qingdao Kingagroot Chemical Compound Co., Ltd., priority 2018, dated 2024).

Columns and labels:
Assay in all cases: Post-emergence test experiment (greenhouse pot, spray at 2-3 leaf stage)
Type in all cases: in vivo
Settings in all cases: 1000 g/ha; post-emergence spray at 2-3 leaf stage; assessed after 3 weeks; fresh weight inhibition rate
Galium spurium = test system: Galium spurium
Source text: (§1) The activity level standard of harmful plants destruction (i. e. growth inhibition rate) is as follows: • Level 5: the growth inhibition rate is greater than 85%; • Level 4: the growth inhibition rate is equal to or greater than 60% and less than 85%; • Level 3: the growth inhibition rate is equal to or greater than 40% and less than 60%; • Level 2: the growth inhibition rate is equal to or greater than 20% and less than 40%; • Level 1: the growth inhibition rate is equal to or greater than 5% and less than 20%; • Level 0: the growth inhibition rate is less than 5%;
(§2) The above described growth inhibition rate is fresh weight inhibition rate.
(§3) Post-emergence test experiment: Monocotyledonous and dicotyledonous weed seeds and main crop seeds (i. e. wheat, corn, rice, soybean, cotton, oilseed, millet and sorghum.) were put into a plastic pot loaded with soil. Then covered with 0.5-2 cm soil, the seeds were allowed to grow in good greenhouse environment. The test plants were treated at 2-3 leaf stage 2 weeks after sowing. The test compounds of the invention were dissolved with acetone respectively, then added with tween-80, and using 1.5 liters per hectare of an emulsible concentrate of methyl oleate as a synergist, and diluted by certain amount of water to certain concentration. The solution was sprayed to the plants with a sprayer. Then the plants were cultured for 3 weeks in the greenhouse, and the experiment result of weed controlling effect after 3 weeks was listed in tables 3-4.

Monochoria vaginalis = test system: Monochoria vaginalis
Source text: as §1, §2, §3

Abutilon theophrasti = test system: Abutilon theophrasti
Source text: as §1, §2, §3

Row | SMILES | Activity level (growth inhibition rate) Galium spurium (Galium spurium) | Activity level (growth inhibition rate) Monochoria Vaginalis (Monochoria vaginalis) | Activity level (growth inhibition rate) Abutilon theophrasti (Abutilon theophrasti)
1 | Nc1c(Cl)c(F)nc(OC(CCl)C(=O)OCc2ccccc2)c1Cl (stereo not drawn) [Compound 37] | 5 (Level 5: the growth inhibition rate is greater than 85%) | 5 (Level 5: the growth inhibition rate is greater than 85%) | 5 (Level 5: the growth inhibition rate is greater than 85%)
2 | Nc1c(Cl)c(F)nc(OC(CF)C(=O)SCc2ccccc2)c1Cl (stereo not drawn) [Compound 38] | 5 (Level 5: the growth inhibition rate is greater than 85%) | 5 (Level 5: the growth inhibition rate is greater than 85%) | 5 (Level 5: the growth inhibition rate is greater than 85%)
3 | Nc1c(Cl)c(F)nc(OC(C(=O)OCc2ccccc2)C(F)F)c1Cl (stereo not drawn) [Compound 39] | 5 (Level 5: the growth inhibition rate is greater than 85%) | 5 (Level 5: the growth inhibition rate is greater than 85%) | 5 (Level 5: the growth inhibition rate is greater than 85%)
4 | Nc1c(Cl)c(F)nc(OC(CCCl)C(=O)OCc2ccccc2)c1Cl (stereo not drawn) [Compound 40] | 5 (Level 5: the growth inhibition rate is greater than 85%) | 5 (Level 5: the growth inhibition rate is greater than 85%) | 5 (Level 5: the growth inhibition rate is greater than 85%)
5 | Nc1c(Cl)c(F)nc(OC(CC(F)(F)F)C(=O)SCc2ccccc2)c1Cl (stereo not drawn) [Compound 42] | 5 (Level 5: the growth inhibition rate is greater than 85%) | 5 (Level 5: the growth inhibition rate is greater than 85%) | 5 (Level 5: the growth inhibition rate is greater than 85%)
6 | Nc1c(Cl)c(F)nc(OC(N)C(=O)OCc2ccccc2)c1Cl (stereo not drawn) [Compound 45] | 5 (Level 5: the growth inhibition rate is greater than 85%) | 5 (Level 5: the growth inhibition rate is greater than 85%) | 5 (Level 5: the growth inhibition rate is greater than 85%)
7 | CSC(Oc1nc(F)c(Cl)c(N)c1Cl)C(=O)OCc1ccccc1 (stereo not drawn) [Compound 47] | 5 (Level 5: the growth inhibition rate is greater than 85%) | 5 (Level 5: the growth inhibition rate is greater than 85%) | 5 (Level 5: the growth inhibition rate is greater than 85%)
8 | Nc1c(Cl)c(F)nc(OC(CO)C(=O)OCc2ccccc2)c1Cl (stereo not drawn) [Compound 48] | 5 (Level 5: the growth inhibition rate is greater than 85%) | 5 (Level 5: the growth inhibition rate is greater than 85%) | 5 (Level 5: the growth inhibition rate is greater than 85%)
9 | Nc1c(Cl)c(F)nc(OC(C(=O)OCc2ccccc2)[N+](=O)[O-])c1Cl (stereo not drawn) [Compound 49] | 5 (Level 5: the growth inhibition rate is greater than 85%) | 5 (Level 5: the growth inhibition rate is greater than 85%) | 5 (Level 5: the growth inhibition rate is greater than 85%)
10 | Nc1c(Cl)c(F)nc(OC(C=O)C(=O)OCc2ccccc2)c1Cl (stereo not drawn) [Compound 51] | 5 (Level 5: the growth inhibition rate is greater than 85%) | 5 (Level 5: the growth inhibition rate is greater than 85%) | 5 (Level 5: the growth inhibition rate is greater than 85%)
11 | COC(=O)C(Oc1nc(F)c(Cl)c(N)c1Cl)C(=O)OCc1ccccc1 (stereo not drawn) [Compound 52] | 5 (Level 5: the growth inhibition rate is greater than 85%) | 5 (Level 5: the growth inhibition rate is greater than 85%) | 5 (Level 5: the growth inhibition rate is greater than 85%)
12 | Nc1c(Cl)c(F)nc(OC(C(=O)SCc2ccccc2)c2ccoc2)c1Cl (stereo not drawn) [Compound 55] | 5 (Level 5: the growth inhibition rate is greater than 85%) | 5 (Level 5: the growth inhibition rate is greater than 85%) | 5 (Level 5: the growth inhibition rate is greater than 85%)
13 | Nc1c(Cl)c(F)nc(OC(C(=O)OCc2ccccc2)c2cscn2)c1Cl (stereo not drawn) [Compound 56] | 5 (Level 5: the growth inhibition rate is greater than 85%) | 5 (Level 5: the growth inhibition rate is greater than 85%) | 5 (Level 5: the growth inhibition rate is greater than 85%)
14 | CCn1nccc1C(Oc1nc(F)c(Cl)c(N)c1Cl)C(=O)OCc1ccccc1 (stereo not drawn) [Compound 57] | 5 (Level 5: the growth inhibition rate is greater than 85%) | 5 (Level 5: the growth inhibition rate is greater than 85%) | 5 (Level 5: the growth inhibition rate is greater than 85%)
15 | Cc1nn(C)cc1C(Oc1nc(F)c(Cl)c(N)c1Cl)C(=O)SCc1ccccc1 (stereo not drawn) [Compound 58] | 5 (Level 5: the growth inhibition rate is greater than 85%) | 5 (Level 5: the growth inhibition rate is greater than 85%) | 5 (Level 5: the growth inhibition rate is greater than 85%)
16 | Nc1c(Cl)c(F)nc(OC(C(=O)OCc2ccccc2)c2ccn(C(F)F)n2)c1Cl (stereo not drawn) [Compound 59] | 5 (Level 5: the growth inhibition rate is greater than 85%) | 5 (Level 5: the growth inhibition rate is greater than 85%) | 5 (Level 5: the growth inhibition rate is greater than 85%)
17 | Nc1c(Cl)c(F)nc(OC(C(=O)OCc2ccccc2)c2ccccc2)c1Cl (stereo not drawn) [Compound 60] | 5 (Level 5: the growth inhibition rate is greater than 85%) | 5 (Level 5: the growth inhibition rate is greater than 85%) | 5 (Level 5: the growth inhibition rate is greater than 85%)
18 | Nc1c(Cl)c(F)nc(OC(C(=O)SCc2ccccc2)c2ccc(C(F)(F)F)cc2)c1Cl (stereo not drawn) [Compound 61] | 5 (Level 5: the growth inhibition rate is greater than 85%) | 5 (Level 5: the growth inhibition rate is greater than 85%) | 5 (Level 5: the growth inhibition rate is greater than 85%)
19 | Nc1c(Cl)c(F)nc(OC(C(=O)OCc2ccccc2)c2cccc(Cl)c2)c1Cl (stereo not drawn) [Compound 62] | 5 (Level 5: the growth inhibition rate is greater than 85%) | 5 (Level 5: the growth inhibition rate is greater than 85%) | 5 (Level 5: the growth inhibition rate is greater than 85%)
